For orientation: ΔTm means the change in melting temperature against a reference sample.

Assay [1] has as its target Bromodomain testis-specific protein (Homo sapiens, UniProt Q58F21). Kind of assay: Binding affinity to His6-fused BRDT BD1 (unknown origin) assessed as change in melting temperature at 100 uM incubated for 30 mins by thermal shift assay.
Assay [2] deals with Bromodomain-containing protein 2 (Homo sapiens, UniProt P25440). Kind of assay: Binding affinity to His6-fused BRD2 BD1 (unknown origin) assessed as change in melting temperature at 100 uM incubated for 30 mins by thermal shift assay.
Sequence of Bromodomain-containing protein 2 (P25440 whole entry, looked up, the tested form may be a part): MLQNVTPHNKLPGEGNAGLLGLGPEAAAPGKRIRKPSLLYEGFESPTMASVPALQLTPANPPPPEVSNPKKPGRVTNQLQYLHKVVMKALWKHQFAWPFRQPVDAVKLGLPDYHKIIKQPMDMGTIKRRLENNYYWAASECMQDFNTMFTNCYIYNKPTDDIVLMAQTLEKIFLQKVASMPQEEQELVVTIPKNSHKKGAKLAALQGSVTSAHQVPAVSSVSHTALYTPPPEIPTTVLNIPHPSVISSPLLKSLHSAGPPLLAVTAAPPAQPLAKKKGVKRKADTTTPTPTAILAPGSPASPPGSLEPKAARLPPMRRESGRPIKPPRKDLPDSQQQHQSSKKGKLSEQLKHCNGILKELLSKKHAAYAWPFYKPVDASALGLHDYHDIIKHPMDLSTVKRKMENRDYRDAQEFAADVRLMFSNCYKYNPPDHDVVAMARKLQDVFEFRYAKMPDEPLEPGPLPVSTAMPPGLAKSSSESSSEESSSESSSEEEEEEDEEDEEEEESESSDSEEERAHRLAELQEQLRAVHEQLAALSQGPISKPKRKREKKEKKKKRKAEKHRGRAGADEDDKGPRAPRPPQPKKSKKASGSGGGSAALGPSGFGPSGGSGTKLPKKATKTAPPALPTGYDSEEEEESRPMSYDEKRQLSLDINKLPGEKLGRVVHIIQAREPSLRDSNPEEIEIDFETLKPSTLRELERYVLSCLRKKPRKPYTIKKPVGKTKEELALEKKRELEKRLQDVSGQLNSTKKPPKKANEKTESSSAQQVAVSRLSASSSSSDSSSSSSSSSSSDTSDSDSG
The target of assay [3] is Histone acetyltransferase KAT2B (Homo sapiens) (UniProt Q92831). The assay is described as follows: Binding affinity to PCAF (unknown origin) assessed as change in melting temperature at 100 uM incubated for 30 mins by thermal shift assay.
Sequence of Histone acetyltransferase KAT2B (Homo sapiens) (Q92831 whole entry, looked up): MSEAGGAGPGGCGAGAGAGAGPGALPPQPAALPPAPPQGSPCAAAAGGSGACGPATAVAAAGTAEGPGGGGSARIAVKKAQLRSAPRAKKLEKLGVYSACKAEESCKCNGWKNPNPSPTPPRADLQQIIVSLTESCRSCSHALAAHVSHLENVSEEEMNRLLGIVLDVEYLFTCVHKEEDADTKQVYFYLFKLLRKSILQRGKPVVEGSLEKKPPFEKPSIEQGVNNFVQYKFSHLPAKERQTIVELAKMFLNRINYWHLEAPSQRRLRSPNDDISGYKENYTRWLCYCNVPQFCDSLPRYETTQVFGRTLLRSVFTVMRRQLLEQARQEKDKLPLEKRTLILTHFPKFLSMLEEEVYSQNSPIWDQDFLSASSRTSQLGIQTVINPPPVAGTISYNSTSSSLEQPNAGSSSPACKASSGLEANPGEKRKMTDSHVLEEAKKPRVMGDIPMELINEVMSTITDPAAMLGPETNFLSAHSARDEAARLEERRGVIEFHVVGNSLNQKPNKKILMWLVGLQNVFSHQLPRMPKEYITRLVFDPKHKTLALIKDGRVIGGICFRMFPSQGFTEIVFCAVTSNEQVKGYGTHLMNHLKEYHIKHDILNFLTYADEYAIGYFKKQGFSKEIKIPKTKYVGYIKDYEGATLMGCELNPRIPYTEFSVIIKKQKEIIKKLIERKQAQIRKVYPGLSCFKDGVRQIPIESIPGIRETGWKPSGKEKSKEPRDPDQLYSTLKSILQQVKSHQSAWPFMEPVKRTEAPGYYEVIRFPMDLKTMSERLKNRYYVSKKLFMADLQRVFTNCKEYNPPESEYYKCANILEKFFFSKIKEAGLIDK
The target in the next assay is T1, Peregrin (Homo sapiens) (UniProt P55201).
T1 sequence (whole entry): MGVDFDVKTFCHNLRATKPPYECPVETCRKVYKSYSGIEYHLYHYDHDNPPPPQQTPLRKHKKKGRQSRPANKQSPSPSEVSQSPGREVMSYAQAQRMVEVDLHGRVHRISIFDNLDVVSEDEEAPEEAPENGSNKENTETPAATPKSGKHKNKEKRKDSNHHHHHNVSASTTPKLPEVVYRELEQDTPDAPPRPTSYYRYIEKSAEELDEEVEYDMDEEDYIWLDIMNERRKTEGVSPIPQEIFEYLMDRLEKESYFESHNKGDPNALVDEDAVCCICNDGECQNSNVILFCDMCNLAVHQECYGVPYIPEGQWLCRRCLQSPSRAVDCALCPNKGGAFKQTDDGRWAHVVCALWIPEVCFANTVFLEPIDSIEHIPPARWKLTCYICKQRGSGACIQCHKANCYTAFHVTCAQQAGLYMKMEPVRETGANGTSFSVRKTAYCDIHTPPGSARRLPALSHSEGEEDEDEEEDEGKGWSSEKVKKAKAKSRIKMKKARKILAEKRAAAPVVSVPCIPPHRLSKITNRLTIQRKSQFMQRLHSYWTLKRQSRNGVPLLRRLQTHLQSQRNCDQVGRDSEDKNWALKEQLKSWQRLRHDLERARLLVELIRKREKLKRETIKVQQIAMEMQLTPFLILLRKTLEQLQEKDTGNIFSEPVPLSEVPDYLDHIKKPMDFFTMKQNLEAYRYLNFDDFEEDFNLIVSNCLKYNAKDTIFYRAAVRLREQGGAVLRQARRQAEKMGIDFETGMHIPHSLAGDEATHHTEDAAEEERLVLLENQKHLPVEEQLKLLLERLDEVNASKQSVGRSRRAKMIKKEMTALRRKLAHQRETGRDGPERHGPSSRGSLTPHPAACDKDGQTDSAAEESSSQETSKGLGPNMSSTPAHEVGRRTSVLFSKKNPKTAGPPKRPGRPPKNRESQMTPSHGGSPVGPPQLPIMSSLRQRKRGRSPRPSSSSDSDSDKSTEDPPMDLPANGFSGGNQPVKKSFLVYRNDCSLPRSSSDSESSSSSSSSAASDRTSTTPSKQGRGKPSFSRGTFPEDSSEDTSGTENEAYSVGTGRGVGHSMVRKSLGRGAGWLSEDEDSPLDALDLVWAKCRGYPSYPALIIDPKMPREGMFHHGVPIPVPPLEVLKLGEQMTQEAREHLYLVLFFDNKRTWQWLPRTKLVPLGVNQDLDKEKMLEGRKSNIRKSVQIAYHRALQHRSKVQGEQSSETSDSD
Kind of assay: Binding affinity to BRPF1 (unknown origin) assessed as change in melting temperature at 100 uM incubated for 30 mins by thermal shift assay.

Assay [4] has as its target T2, Transcription intermediary factor 1-alpha (Homo sapiens) (UniProt O15164).
T2 sequence (whole entry): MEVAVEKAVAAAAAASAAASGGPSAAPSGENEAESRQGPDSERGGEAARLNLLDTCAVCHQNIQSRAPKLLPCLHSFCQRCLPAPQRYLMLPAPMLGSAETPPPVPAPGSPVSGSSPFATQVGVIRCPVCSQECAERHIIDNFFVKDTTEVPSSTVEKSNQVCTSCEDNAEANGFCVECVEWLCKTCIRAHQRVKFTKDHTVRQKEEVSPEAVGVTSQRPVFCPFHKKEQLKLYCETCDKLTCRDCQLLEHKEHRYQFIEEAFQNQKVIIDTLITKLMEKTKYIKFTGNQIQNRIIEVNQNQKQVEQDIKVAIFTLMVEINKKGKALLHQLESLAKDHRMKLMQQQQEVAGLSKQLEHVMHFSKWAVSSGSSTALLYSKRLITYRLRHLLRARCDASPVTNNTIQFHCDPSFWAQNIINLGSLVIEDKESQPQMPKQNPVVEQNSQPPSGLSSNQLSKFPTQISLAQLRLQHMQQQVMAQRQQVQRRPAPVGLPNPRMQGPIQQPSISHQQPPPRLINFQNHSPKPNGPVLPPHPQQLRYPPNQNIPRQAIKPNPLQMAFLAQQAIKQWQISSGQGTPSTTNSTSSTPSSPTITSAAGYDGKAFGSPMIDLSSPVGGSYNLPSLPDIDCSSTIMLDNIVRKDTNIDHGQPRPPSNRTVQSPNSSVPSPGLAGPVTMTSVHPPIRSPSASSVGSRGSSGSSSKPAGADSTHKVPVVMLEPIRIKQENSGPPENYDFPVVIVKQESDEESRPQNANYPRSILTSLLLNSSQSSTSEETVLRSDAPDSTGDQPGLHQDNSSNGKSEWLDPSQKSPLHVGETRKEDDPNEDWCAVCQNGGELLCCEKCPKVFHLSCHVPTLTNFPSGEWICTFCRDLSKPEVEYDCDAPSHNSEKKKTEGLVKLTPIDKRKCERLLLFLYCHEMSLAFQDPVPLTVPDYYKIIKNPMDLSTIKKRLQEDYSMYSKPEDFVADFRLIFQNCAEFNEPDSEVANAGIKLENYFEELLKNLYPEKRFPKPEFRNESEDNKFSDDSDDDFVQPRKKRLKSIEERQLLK
Kind of assay: Binding affinity to TRIM24 (unknown origin) assessed as change in melting temperature at 100 uM incubated for 30 mins by thermal shift assay.

For assay [5], the target named is SWI/SNF-related matrix-associated actin-dependent regulator of chromatin subfamily A member 2 (Homo sapiens) (UniProt P51531). The assay is described as follows: Binding affinity to SMARCA2B (unknown origin) assessed as change in melting temperature at 100 uM incubated for 30 mins by thermal shift assay.
Sequence of SWI/SNF-related matrix-associated actin-dependent regulator of chromatin subfamily A member 2 (Homo sapiens) (P51531 whole entry): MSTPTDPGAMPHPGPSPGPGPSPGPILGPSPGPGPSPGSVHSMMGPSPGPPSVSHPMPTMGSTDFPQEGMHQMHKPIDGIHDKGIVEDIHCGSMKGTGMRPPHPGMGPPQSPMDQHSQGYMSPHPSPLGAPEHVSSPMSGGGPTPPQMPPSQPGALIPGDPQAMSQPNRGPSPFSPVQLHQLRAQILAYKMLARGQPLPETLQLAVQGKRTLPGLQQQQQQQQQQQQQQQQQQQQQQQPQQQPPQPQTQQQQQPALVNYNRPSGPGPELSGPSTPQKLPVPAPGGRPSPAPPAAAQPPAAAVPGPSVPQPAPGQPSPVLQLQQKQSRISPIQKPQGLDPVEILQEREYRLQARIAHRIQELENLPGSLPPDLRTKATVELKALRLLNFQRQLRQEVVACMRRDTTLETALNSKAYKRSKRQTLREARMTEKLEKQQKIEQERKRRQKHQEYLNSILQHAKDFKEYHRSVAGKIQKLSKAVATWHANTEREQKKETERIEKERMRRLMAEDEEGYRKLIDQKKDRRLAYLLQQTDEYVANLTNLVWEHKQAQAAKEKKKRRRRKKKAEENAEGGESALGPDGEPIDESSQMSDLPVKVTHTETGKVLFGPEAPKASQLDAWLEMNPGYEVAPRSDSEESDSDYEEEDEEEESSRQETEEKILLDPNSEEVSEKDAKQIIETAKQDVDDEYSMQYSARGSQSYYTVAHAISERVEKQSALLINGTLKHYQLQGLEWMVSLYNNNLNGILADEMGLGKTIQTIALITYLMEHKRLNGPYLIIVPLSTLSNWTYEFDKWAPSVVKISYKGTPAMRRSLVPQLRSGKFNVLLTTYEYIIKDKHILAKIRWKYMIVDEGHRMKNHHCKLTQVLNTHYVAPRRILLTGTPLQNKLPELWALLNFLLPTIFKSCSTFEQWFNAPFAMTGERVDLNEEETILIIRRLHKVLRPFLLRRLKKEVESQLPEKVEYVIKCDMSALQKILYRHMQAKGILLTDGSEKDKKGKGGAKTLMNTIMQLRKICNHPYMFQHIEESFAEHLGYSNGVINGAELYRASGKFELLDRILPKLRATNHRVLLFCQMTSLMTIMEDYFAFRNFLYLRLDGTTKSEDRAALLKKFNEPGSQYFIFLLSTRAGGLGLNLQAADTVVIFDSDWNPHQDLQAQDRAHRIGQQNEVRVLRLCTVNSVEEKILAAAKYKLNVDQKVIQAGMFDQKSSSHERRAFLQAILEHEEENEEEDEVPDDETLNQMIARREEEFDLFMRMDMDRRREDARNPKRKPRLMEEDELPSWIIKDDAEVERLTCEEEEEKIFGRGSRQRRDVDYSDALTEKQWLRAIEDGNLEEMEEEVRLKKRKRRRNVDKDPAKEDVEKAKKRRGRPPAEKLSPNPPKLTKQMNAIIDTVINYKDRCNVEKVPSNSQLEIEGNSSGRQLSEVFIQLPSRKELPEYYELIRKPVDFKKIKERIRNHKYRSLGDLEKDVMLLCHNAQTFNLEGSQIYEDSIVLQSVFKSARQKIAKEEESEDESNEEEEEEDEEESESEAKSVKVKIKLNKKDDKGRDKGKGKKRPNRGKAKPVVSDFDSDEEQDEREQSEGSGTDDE
Assay [6] has the same target. Kind of assay: Binding affinity to SMARCA2A (unknown origin) assessed as change in melting temperature at 100 uM incubated for 30 mins by thermal shift assay.
Assay [7] addresses PH-interacting protein (Homo sapiens) (UniProt Q8WWQ0). Kind of assay: Binding affinity to PHIP-2 (unknown origin) assessed as change in melting temperature at 100 uM incubated for 30 mins by thermal shift assay.
For assay [8], the target named is Transcription initiation factor TFIID subunit 1 (Homo sapiens) (UniProt P21675). Kind of assay: Binding affinity to TAF1 BD2 (unknown origin) assessed as change in melting temperature at 100 uM incubated for 30 mins by thermal shift assay.
Sequence of Transcription initiation factor TFIID subunit 1 (Homo sapiens) (P21675 whole entry): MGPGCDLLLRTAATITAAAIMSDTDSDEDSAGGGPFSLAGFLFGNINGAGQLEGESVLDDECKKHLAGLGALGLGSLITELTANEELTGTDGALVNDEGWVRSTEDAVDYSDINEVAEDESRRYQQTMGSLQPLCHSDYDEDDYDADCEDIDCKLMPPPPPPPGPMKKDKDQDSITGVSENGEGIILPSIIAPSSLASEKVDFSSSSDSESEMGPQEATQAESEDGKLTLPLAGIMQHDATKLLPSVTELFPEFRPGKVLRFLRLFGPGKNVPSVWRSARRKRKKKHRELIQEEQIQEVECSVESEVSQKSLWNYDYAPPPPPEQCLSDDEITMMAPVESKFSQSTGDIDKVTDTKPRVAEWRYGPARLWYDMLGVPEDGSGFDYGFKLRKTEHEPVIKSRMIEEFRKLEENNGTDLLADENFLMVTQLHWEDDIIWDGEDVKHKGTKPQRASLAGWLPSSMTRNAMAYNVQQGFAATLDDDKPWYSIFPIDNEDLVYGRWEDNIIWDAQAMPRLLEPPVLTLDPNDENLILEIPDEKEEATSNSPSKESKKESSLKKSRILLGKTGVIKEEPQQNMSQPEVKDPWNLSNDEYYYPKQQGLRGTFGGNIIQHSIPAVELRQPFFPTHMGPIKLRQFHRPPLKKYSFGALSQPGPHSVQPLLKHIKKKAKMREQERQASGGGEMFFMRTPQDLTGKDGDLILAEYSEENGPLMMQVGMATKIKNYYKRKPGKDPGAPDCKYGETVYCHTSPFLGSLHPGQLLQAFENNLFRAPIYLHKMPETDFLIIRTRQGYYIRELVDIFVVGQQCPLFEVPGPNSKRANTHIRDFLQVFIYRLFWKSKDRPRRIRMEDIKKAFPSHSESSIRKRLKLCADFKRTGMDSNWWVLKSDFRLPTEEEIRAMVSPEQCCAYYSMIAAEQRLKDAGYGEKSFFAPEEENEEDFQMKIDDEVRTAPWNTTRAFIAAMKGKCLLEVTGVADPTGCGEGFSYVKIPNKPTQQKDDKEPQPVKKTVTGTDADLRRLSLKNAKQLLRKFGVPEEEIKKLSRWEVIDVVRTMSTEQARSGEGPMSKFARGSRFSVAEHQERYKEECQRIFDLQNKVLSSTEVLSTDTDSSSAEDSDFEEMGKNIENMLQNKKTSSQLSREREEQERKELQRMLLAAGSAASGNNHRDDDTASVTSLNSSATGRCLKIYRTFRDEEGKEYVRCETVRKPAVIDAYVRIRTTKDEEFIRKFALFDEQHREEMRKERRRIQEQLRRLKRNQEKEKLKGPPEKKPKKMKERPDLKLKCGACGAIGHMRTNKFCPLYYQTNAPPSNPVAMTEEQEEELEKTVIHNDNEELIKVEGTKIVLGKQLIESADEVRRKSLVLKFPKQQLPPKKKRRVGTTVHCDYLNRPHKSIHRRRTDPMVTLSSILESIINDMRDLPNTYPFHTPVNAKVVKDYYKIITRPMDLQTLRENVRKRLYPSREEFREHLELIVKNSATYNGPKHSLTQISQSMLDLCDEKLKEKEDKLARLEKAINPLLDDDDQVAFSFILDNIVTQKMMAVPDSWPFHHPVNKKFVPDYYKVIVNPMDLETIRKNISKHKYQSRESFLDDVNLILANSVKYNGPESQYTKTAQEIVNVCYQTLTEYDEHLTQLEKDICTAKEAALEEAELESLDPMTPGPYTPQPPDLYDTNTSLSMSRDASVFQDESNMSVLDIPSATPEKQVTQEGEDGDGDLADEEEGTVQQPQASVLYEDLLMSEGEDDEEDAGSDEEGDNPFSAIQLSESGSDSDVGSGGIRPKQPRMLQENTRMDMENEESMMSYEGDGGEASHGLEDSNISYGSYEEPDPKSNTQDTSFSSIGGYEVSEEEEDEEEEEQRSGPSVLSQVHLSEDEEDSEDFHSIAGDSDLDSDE
Assay [9] has as its target Bromodomain-containing protein 4 (Homo sapiens, UniProt O60885). The settings on record: dose 100.0 µM, time 30.0 min.

Take `Cc1cc(F)cc(C)c1Oc1ccc(C(C)(C)O)cc1-c1cn(C)c(=O)c2cc(-c3cnc(C4CCCC4)[nH]3)oc12`: the ΔTm was 2 °C in [1]; 2 °C in [2]; 0 °C in [3]; -1.5 °C at Peregrin (Homo sapiens); -1 °C in [4]; 1 °C in [5]. Further, the results for the ΔTm in assay [6] and in [7] were 1 °C and -2 °C, respectively.

On to `Cc1cc(F)cc(C)c1Oc1ccc(C(C)(C)O)cc1-c1cn(C)c(=O)c2cc(-c3cnc(C4CC4)[nH]3)oc12`, for which the ΔTm in assay [8] is -1.25 °C; in assay [1], 2.75 °C; in assay [2], 3.5 °C; in assay [3], -0.5 °C; on Peregrin (Homo sapiens) it was -2 °C; in assay [4] it was -1.5 °C. In addition, the ΔTm in assay [5] is -0.25 °C; in assay [9], 5.25 °C; in assay [6] it was 0.75 °C; in assay [7], -2 °C.

Take `Cc1cc(F)cc(C)c1Oc1ccc(C(C)(C)O)cc1-c1cn(C)c(=O)c2cc(-c3cnc(C4CCC4)[nH]3)oc12`: the ΔTm is -1 °C in assay [8]; 3 °C in [1]; 3 °C in [2]; -1 °C in assay [3]; -1.5 °C at Peregrin (Homo sapiens); -1.25 °C in assay [4]. The ΔTm in assay [5] was 0.75 °C; in assay [9], 5.5 °C; in assay [6] it was 0.5 °C; in assay [7], -2 °C.

Turning to `Cc1cc(F)cc(C)c1Oc1ccc(C(C)(C)O)cc1-c1cn(C)c(=O)c2cc(-c3cnc(C4CCCCC4)[nH]3)oc12`, the ΔTm in assay [8] is -1 °C; in assay [1], 2 °C; in assay [2] it was 1 °C; in [3], 0.25 °C; at Peregrin (Homo sapiens) it was -1.25 °C; in [4], -1 °C. For the same compound, the ΔTm in assay [5] is 1 °C; in [9], 2.75 °C; in [6] it was 1 °C; in [7], -2 °C.

These data come from ChEMBL document CHEMBL5154816, “Structure-Based Discovery and Optimization of Furo[3,2-c]pyridin-4(5H)-one Derivatives as Potent and Second Bromodomain (BD2)-Selective Bromo and Extra Terminal Domain (BET) Inhibitors” (J Med Chem, 2022).
